From patent US10556888B2, “Pyrazole compounds or salts thereof, preparation methods therefor, herbicidal compositions and use thereof” (QINGDAO KINGAGROOT CHEMICAL COMPOUNDS CO., LTD, priority 2015, dated 2020) come the findings set out here.

In data set [1] the test system is Monocotyledonous and dicotyledonous weed. Put plainly: Post-emergence test experiment, weed control effect (Table 2). The data set is classed as in vivo. Details: key to weed control effect, Setaria viridis (level) / weed control effect, Rorippa indica (level) / weed control effect, Abutilon theophrasti (level) / weed control effect, Echinochloa crus-galli (level) / weed control effect, Digitaria sanguinalis (level): Level 10: completely dead; Level 9: above 90% growth inhibition rate; Level 8: above 80% growth inhibition rate; Level 7: above 70% growth inhibition rate; Level 6: above 60% growth inhibition rate; Level 5: above 50% growth inhibition rate; Level 4: above 30% growth inhibition rate; Level 3: above 20% growth inhibition rate; Level 2: above 10% growth inhibition rate; Level 1: above 1-10% growth inhibition rate; Level 0: no effect. Conditions: 3 weeks after spraying, greenhouse. In short, it runs like this: (§1)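 Compounds, dissolved in acetone, mixed with Tween 80 and diluted in water, were sprayed post-emergence onto greenhouse-grown weeds and crops at the 2-3 leaf stage (2-3 weeks post-sowing). Plants then grown 3 more weeks in the greenhouse before evaluation.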

The test system of data set [2] is main crop (wheat, corn, rice, soybean, cotton, oilseed, millet and sorghum). Kind of data set: Post-emergence test experiment, main crops (Table 2). The class given is in vivo. Set-up: key: Level 10: completely dead; Level 9: above 90% growth inhibition rate; Level 8: above 80% growth inhibition rate; Level 7: above 70% growth inhibition rate; Level 6: above 60% growth inhibition rate; Level 5: above 50% growth inhibition rate; Level 4: above 30% growth inhibition rate; Level 3: above 20% growth inhibition rate; Level 2: above 10% growth inhibition rate; Level 1: above 1-10% growth inhibition rate; Level 0: no effect. Particulars: 3 weeks after spraying, greenhouse. In a few lines: as §1

On to `CCn1nc(C)c(C(=O)c2ccc(S(C)(=O)=O)c(COCC(F)(F)C(F)F)c2C)c1OC(=O)c1cnn(C)c1` [Compound 85], for which, in data set [1] (30 g/ha), the “weed control effect, Abutilon theophrasti (level)” value was 6 (Level 6: above 60% growth inhibition rate); the “weed control effect, Bidens pilosa (level)” value was 7 (Level 7: above 70% growth inhibition rate); the “weed control effect, Digitaria sanguinalis (level)” value is given as 8 (Level 8: above 80% growth inhibition rate); the “weed control effect, Echinochloa crus-galli (level)” value is 9 (Level 9: above 90% growth inhibition rate). For the same molecule, in data set [1] (30 g/ha), the “weed control effect, Rorippa indica (level)” value was found to be 10 and the “weed control effect, Setaria viridis (level)” value was 8 (Level 8: above 80% growth inhibition rate). Also, in data set [2] (30 g/ha), the “effect on crop, corn (level)” value stood at 0; the “effect on crop, rice (level)” value was 3 (Level 3: above 20% growth inhibition rate); the “effect on crop, wheat (level)” value came out at 0.
Turning to `CCOCCOCc1c(S(C)(=O)=O)ccc(C(=O)c2c(C3CC3)nn(CC)c2OC(=O)c2cnn(C)c2OCC)c1C` [Compound 86], in data set [1] (30 g/ha), the “weed control effect, Abutilon theophrasti (level)” value is listed as 6 (Level 6: above 60% growth inhibition rate); the “weed control effect, Bidens pilosa (level)” value is recorded as 7 (Level 7: above 70% growth inhibition rate); the “weed control effect, Digitaria sanguinalis (level)” value is on record as 8 (Level 8: above 80% growth inhibition rate); the “weed control effect, Echinochloa crus-galli (level)” value was 8 (Level 8: above 80% growth inhibition rate). In data set [1] (30 g/ha), the “weed control effect, Rorippa indica (level)” value was found to be 10 and the “weed control effect, Setaria viridis (level)” value is reported as 8 (Level 8: above 80% growth inhibition rate). Besides, in data set [2] (30 g/ha), the “effect on crop, corn (level)” value worked out at 0; the “effect on crop, rice (level)” value was 3 (Level 3: above 20% growth inhibition rate); the “effect on crop, wheat (level)” value was 0.
Turning to `CCn1ncc(C(=O)c2ccc(S(C)(=O)=O)c(Cn3cc(C)cn3)c2C)c1OC(=O)c1cnn(C)c1` [Compound 87], in data set [1] (120 g/ha), the “weed control effect, Abutilon theophrasti (level)” value is given as 6 (Level 6: above 60% growth inhibition rate); the “weed control effect, Bidens pilosa (level)” value is 6 (Level 6: above 60% growth inhibition rate); the “weed control effect, Digitaria sanguinalis (level)” value was 1 (Level 1: above 1-10% growth inhibition rate); the “weed control effect, Echinochloa crus-galli (level)” value is given as 10. Moreover, in data set [1] (120 g/ha), the “weed control effect, Rorippa indica (level)” value is 4 (Level 4: above 30% growth inhibition rate) and the “weed control effect, Setaria viridis (level)” value is reported as 3 (Level 3: above 20% growth inhibition rate). In data set [2] (120 g/ha), the “effect on crop, corn (level)” value was found to be 0; the “effect on crop, rice (level)” value is listed as 0; the “effect on crop, wheat (level)” value is on record as 0.
Regarding `CC=CCOCc1c(S(C)(=O)=O)ccc(C(=O)c2cnn(CC)c2OC(=O)c2cnn(C)c2)c1Cl` [Compound 88], in data set [1] (30 g/ha), the “weed control effect, Abutilon theophrasti (level)” value is recorded as 6 (Level 6: above 60% growth inhibition rate); the “weed control effect, Bidens pilosa (level)” value was 7 (Level 7: above 70% growth inhibition rate); the “weed control effect, Digitaria sanguinalis (level)” value was 8 (Level 8: above 80% growth inhibition rate); the “weed control effect, Echinochloa crus-galli (level)” value was 7 (Level 7: above 70% growth inhibition rate). In data set [1] (30 g/ha), the “weed control effect, Rorippa indica (level)” value turned out to be 10 and the “weed control effect, Setaria viridis (level)” value was 8 (Level 8: above 80% growth inhibition rate). Further, in data set [2] (30 g/ha), the “effect on crop, corn (level)” value came to 0; the “effect on crop, rice (level)” value is given as 3 (Level 3: above 20% growth inhibition rate); the “effect on crop, wheat (level)” value was found to be 0.
Turning to `CCn1nc(C)c(C(=O)c2ccc(S(C)(=O)=O)c(Cn3cccn3)c2Cl)c1OC(=O)c1cn(C)nc1C` [Compound 89], in data set [1] (30 g/ha), the “weed control effect, Abutilon theophrasti (level)” value was 7 (Level 7: above 70% growth inhibition rate); the “weed control effect, Bidens pilosa (level)” value is listed as 7 (Level 7: above 70% growth inhibition rate); the “weed control effect, Digitaria sanguinalis (level)” value is on record as 7 (Level 7: above 70% growth inhibition rate); the “weed control effect, Echinochloa crus-galli (level)” value turned out to be 10. In addition, in data set [1] (30 g/ha), the “weed control effect, Rorippa indica (level)” value was found to be 10 and the “weed control effect, Setaria viridis (level)” value is on record as 8 (Level 8: above 80% growth inhibition rate). In data set [2] (30 g/ha), the “effect on crop, corn (level)” value is on record as 1 (Level 1: above 1-10% growth inhibition rate); the “effect on crop, rice (level)” value is given as 1 (Level 1: above 1-10% growth inhibition rate); the “effect on crop, wheat (level)” value is 0.
Consider `CCn1nc(C2CC2)c(C(=O)c2ccc(S(C)(=O)=O)c(Cn3cc(C)cn3)c2Cl)c1OC(=O)c1cnn(C)c1` [Compound 91], for which, in data set [1] (120 g/ha), the “weed control effect, Abutilon theophrasti (level)” value is 6 (Level 6: above 60% growth inhibition rate); the “weed control effect, Bidens pilosa (level)” value was 6 (Level 6: above 60% growth inhibition rate); the “weed control effect, Digitaria sanguinalis (level)” value is listed as 1 (Level 1: above 1-10% growth inhibition rate); the “weed control effect, Echinochloa crus-galli (level)” value was determined as 10. In data set [1] (120 g/ha), the “weed control effect, Rorippa indica (level)” value is 4 (Level 4: above 30% growth inhibition rate) and the “weed control effect, Setaria viridis (level)” value was 3 (Level 3: above 20% growth inhibition rate). Besides, in data set [2] (120 g/ha), the “effect on crop, corn (level)” value was determined as 0; the “effect on crop, rice (level)” value was 0; the “effect on crop, wheat (level)” value came out at 0.
Take `CCOc1c(C(=O)Oc2c(C(=O)c3ccc(S(C)(=O)=O)c(COC)c3Cl)c(C)nn2CC)cnn1C` [Compound 92]: in data set [1] (30 g/ha), the “weed control effect, Abutilon theophrasti (level)” value is on record as 5 (Level 5: above 50% growth inhibition rate); the “weed control effect, Bidens pilosa (level)” value is on record as 7 (Level 7: above 70% growth inhibition rate); the “weed control effect, Digitaria sanguinalis (level)” value was 8 (Level 8: above 80% growth inhibition rate); the “weed control effect, Echinochloa crus-galli (level)” value was determined as 10. Further, in data set [1] (30 g/ha), the “weed control effect, Rorippa indica (level)” value was determined as 10 and the “weed control effect, Setaria viridis (level)” value came out at 10. Besides, in data set [2] (30 g/ha), the “effect on crop, corn (level)” value is given as 1 (Level 1: above 1-10% growth inhibition rate); the “effect on crop, rice (level)” value was 3 (Level 3: above 20% growth inhibition rate); the “effect on crop, wheat (level)” value was found to be 0.
For the molecule `CCOc1c(C(=O)Oc2c(C(=O)c3ccc(S(C)(=O)=O)c(Cn4nc(C)cc4C)c3Cl)cnn2CC)cnn1C` [Compound 93], in data set [1] (120 g/ha), the “weed control effect, Abutilon theophrasti (level)” value was 6 (Level 6: above 60% growth inhibition rate); the “weed control effect, Bidens pilosa (level)” value is 6 (Level 6: above 60% growth inhibition rate); the “weed control effect, Digitaria sanguinalis (level)” value is listed as 1 (Level 1: above 1-10% growth inhibition rate); the “weed control effect, Echinochloa crus-galli (level)” value was 10. In addition, in data set [1] (120 g/ha), the “weed control effect, Rorippa indica (level)” value is 4 (Level 4: above 30% growth inhibition rate) and the “weed control effect, Setaria viridis (level)” value is listed as 3 (Level 3: above 20% growth inhibition rate). Moreover, in data set [2] (120 g/ha), the “effect on crop, corn (level)” value is 0; the “effect on crop, rice (level)” value is reported as 0; the “effect on crop, wheat (level)” value was 0.
For the molecule `CCc1nn(CC)c(OC(=O)c2cn(C)nc2C)c1C(=O)c1ccc(S(C)(=O)=O)c(COCC(F)F)c1Cl` [Compound 94], in data set [1] (60 g/ha), the “weed control effect, Abutilon theophrasti (level)” value is on record as 10; the “weed control effect, Bidens pilosa (level)” value was 8 (Level 8: above 80% growth inhibition rate); the “weed control effect, Digitaria sanguinalis (level)” value is recorded as 8 (Level 8: above 80% growth inhibition rate); the “weed control effect, Echinochloa crus-galli (level)” value was 8 (Level 8: above 80% growth inhibition rate). For the same molecule, in data set [1] (60 g/ha), the “weed control effect, Rorippa indica (level)” value is 10 and the “weed control effect, Setaria viridis (level)” value came out at 10. In addition, in data set [2] (60 g/ha), the “effect on crop, corn (level)” value is 0; the “effect on crop, rice (level)” value is recorded as 3 (Level 3: above 20% growth inhibition rate); the “effect on crop, wheat (level)” value turned out to be 0.
For the molecule `CCc1nn(CC)c(OC(=O)c2cn(C)nc2C)c1C(=O)c1ccc(S(C)(=O)=O)c(Cn2nc(C)cc2C)c1Cl` [Compound 95], in data set [1] (120 g/ha), the “weed control effect, Abutilon theophrasti (level)” value was 6 (Level 6: above 60% growth inhibition rate); the “weed control effect, Bidens pilosa (level)” value is 6 (Level 6: above 60% growth inhibition rate); the “weed control effect, Digitaria sanguinalis (level)” value was 1 (Level 1: above 1-10% growth inhibition rate); the “weed control effect, Echinochloa crus-galli (level)” value came to 10. Besides, in data set [1] (120 g/ha), the “weed control effect, Rorippa indica (level)” value is given as 4 (Level 4: above 30% growth inhibition rate) and the “weed control effect, Setaria viridis (level)” value is recorded as 3 (Level 3: above 20% growth inhibition rate). Moreover, in data set [2] (120 g/ha), the “effect on crop, corn (level)” value is 0; the “effect on crop, rice (level)” value is listed as 0; the “effect on crop, wheat (level)” value amounted to 0.
As to `CCOCc1c(S(C)(=O)=O)ccc(C(=O)c2c(C3CC3)nn(C(C)C)c2OC(=O)c2cn(C)nc2C)c1Cl` [Compound 96], in data set [1] (60 g/ha), the “weed control effect, Abutilon theophrasti (level)” value came to 10; the “weed control effect, Bidens pilosa (level)” value was 8 (Level 8: above 80% growth inhibition rate); the “weed control effect, Digitaria sanguinalis (level)” value was 8 (Level 8: above 80% growth inhibition rate); the “weed control effect, Echinochloa crus-galli (level)” value was 10. In addition, in data set [1] (60 g/ha), the “weed control effect, Rorippa indica (level)” value is recorded as 10 and the “weed control effect, Setaria viridis (level)” value is reported as 10. Moreover, in data set [2] (60 g/ha), the “effect on crop, corn (level)” value is 0; the “effect on crop, rice (level)” value is reported as 4 (Level 4: above 30% growth inhibition rate); the “effect on crop, wheat (level)” value came out at 0.
